From patent US20030158250A1, “Agents correcting gene expression regulatory error” (priority 2000, published 2003) come the findings set out here.

Common to all, as to assay type: cell-based
One test deals with interleukin-1β (IL-1β). The experiment in a line: RT-PCR expression level of IL-1β gene in monocytes. The conditions noted are these: human monocytes, 30 PCR cycles. The procedure:
(§1) Four-hundred milliliters of blood was collected from a human normal individual donor. The collected blood was diluted 2-folds with PBS(−), overlaid on Ficoll-paque (manufactured by Pharmacia), and centrifuged at 500×g for 20 minutes. The peripheral blood mononuclear cells (PBMCs) in the intermediate layer was collected with a pipette, and washed with RPMI 1640 medium (manufactured by Bio Whittaker). The collected PBMCs was suspended in a storage solution of 90% FCS (manufactured by JRH Biosciences)/10% dimethyl sulfoxide, and stored in liquid nitrogen. During the experiment, these stored PBMCs were rapidly melted in water bath at 37° C., and washed with RPMI 1640 medium containing 10 μg/ml Dnase (manufactured by Calbiochem). Thereafter, the number of living cells was calculated by trypan blue staining method, and subjected to each experiment.
(§2) PBMCs were suspended in RPMI 1640 medium containing 5% human serum of blood type-AB, 0.1 mM nonessential amino acid, 1 mM sodium pyruvate, 2 mM L-glutamine (hereinabove manufactured by Bio Whittaker), 10 mM HEPES (manufactured by nakalai tesque), and 1% streptomycin-penicillin (manufactured by Gibco BRL) (hereinafter simply referred to as “5HRPMI medium”) so as to have a concentration of 4×10^6 cells/ml. Thereafter, the suspension was spread on a 6-well cell culture plate (manufactured by Falcon) in a volume of 3 ml/well, and the cells were incubated in a wet-type incubator at 37° C. and 5% CO2 for 1.5 hours. After 1.5 hours, the non-adherent cells were removed by suction, and each well was washed with RPMI 1640 medium, and 2 ml of the 5HRPMI medium was added to the wells, to give monocytes.
(§3) To the monocytes obtained above was added in each well 8 μl of an aqueous DGE solution, or 8 μl of water as a control, and the cells were incubated in a wet-type incubator at 37° C. and 5% CO2 for 5 hours. Thereafter, with addition of 2 μl of a 1 μg/ml aqueous LPS solution or 2 μl of a 25 μM TPA dimethyl sulfoxide solution to each well, or with addition of neither of these substances thereto, the cells were cultured for additional 4 hours. Thereafter, RNA was prepared from each cell in accordance with the description of the kit using RNeasy Mini Kit (manufactured by QIAGEN, 74104). The group with addition of water alone or the aqueous DGE solution alone to the cells was set as a negative control, and the group with addition of water and the aqueous LPS solution or the aqueous TPA solution to the cells was set as a positive control.
(§4) A liquid mixture having a total volume of 60 μl of 0.5 μg of RNA prepared above, 10 mM Tris-HCl (pH 8.3), 50 mM KCl, 5 mM MgCl2, 1 mM dNTP mixtures, 150 pmol of Random 6 mers, 60 U Ribonuclease Inhibitor (manufactured by Takara Shuzo Co., Ltd., 2310A), and 15 U Reverse Transcriptase XL (AMV) (manufactured by Takara Shuzo Co., Ltd., 2620A) were incubated at 30° C. for 10 minutes and thereafter at 42° C. for 1 hour using a thermal cycler (GeneAmp PCR System 9600, manufactured by Applied Biosystems), and the mixture was heated at 99° C. for 5 minutes to deactivate the enzyme, to give cDNA.
(§5) Oligonucleotide primers for reaction of PCR were designed based on mRNA nucleotide sequence of each gene listed in the following tables, and synthesized in the same manner as above. In Tables 4 and 5, each gene evaluated in this Example, GenBank Accession NO, the name of oligonucleotide primers and SEQ ID NOs of the primers in Sequence Listing were listed. […]

For test [1], the system named is SCO (cytochrome oxidase deficient, yeast) homolog-2 (SCO2). The experiment in a line: RT-PCR expression level of SCO2 gene in monocytes. The conditions noted are these: human monocytes, 30 PCR cycles. The procedure:
as §1, §2, §3, §4, §5

For test [2], the system named is macrophage inflammatory protein-1-β (MIP1β). The experiment in a line: RT-PCR expression level of MIP1β gene in monocytes. The conditions noted are these: human monocytes, 30 PCR cycles. Here is the method:
as §1, §2, §3, §4, §5

Test [3] has as its system macrophage inflammatory protein-2-α (MIP2α). The experiment in a line: RT-PCR expression level of MIP2α gene in monocytes. As to conditions: human monocytes, 35 PCR cycles. Here is the method: as §1, §2, §3, §4, §5
The test system of test [4] is migration inhibitory factor-related protein-8 (MRP8). Kind of test: RT-PCR expression level of MRP8 gene in monocytes. As to conditions: human monocytes, 30 PCR cycles. Here is the method: as §1, §2, §3, §4, §5
Test [5] relates to Nef-associated factor-1 (NAF1). The experiment in a line: RT-PCR expression level of NAF1 gene in monocytes. The conditions noted are these: human monocytes, 30 PCR cycles. The procedure:
as §1, §2, §3, §4, §5

For test [6], the system named is regulator of G-protein signaling-2 (RGS2). Kind of test: RT-PCR expression level of RGS2 gene in monocytes. The conditions noted are these: human monocytes, 35 PCR cycles. Here is the method:
as §1, §2, §3, §4, §5

The test system of test [7] is adenosine A2a receptor (ADORA2A). Kind of test: RT-PCR expression level of ADORA2A gene in monocytes. The conditions noted are these: human monocytes, 35 PCR cycles. Here is the method:
as §1, §2, §3, §4, §5

Test [8] relates to interferon-induced 17-kDa/15-kDa protein (IFNp15/p17). The experiment in a line: RT-PCR expression level of IFNp15/p17 gene in monocytes. The conditions noted are these: human monocytes, 30 PCR cycles. The procedure:
as §1, §2, §3, §4, §5

The next test concerns transketolase (TK). Kind of test: RT-PCR expression level of TK gene in monocytes. The conditions noted are these: human monocytes, 30 PCR cycles. Here is the method: as §1, §2, §3, §4, §5
[9] abbreviates: substance added alone, Con. (water) +.
[10] abbreviates: substance added alone, Con. (water) +/−.
[11] abbreviates: L + D: DGE and LPS, LPS alone +++.
Where [12] appears, read: T + D: DGE and TPA, TPA alone ++.
[13] abbreviates: L + D: DGE and LPS, LPS alone −.
Setting [14] is: T + D: DGE and TPA, TPA alone +.
Where [15] appears, read: L + D: DGE and LPS, LPS alone +/−.
Setting [16] is: T + D: DGE and TPA, TPA alone +/−.

Take “lipopolysaccharide [LPS, reference compound]”: the “expression level of IL-1β gene” value in the test on interleukin-1β (IL-1β) (setting [9]) is reported as “+++”. Further, the “expression level of SCO2 gene” value in test [1] (setting [9]) was “−”. Also, in test [2] (setting [9]), the “expression level of MIP1β gene” value is “+++”. Moreover, the “expression level of MIP2α gene” value in test [3] (setting [10]) is on record as “+”. The “expression level of MRP8 gene” value in [4] (setting [9]) was “+/−”. Moreover, in test [5] (setting [9]), the “expression level of NAF1 gene” value is listed as “++”. Moreover, the “expression level of RGS2 gene” value in test [6] (setting [10]) is “−”. Further, in [7] (setting [9]), the “expression level of ADORA2A gene” value is “+++”. The “expression level of IFNp15/p17 gene” value in [8] (setting [9]) is “+++”. Moreover, the “expression level of TK gene” value in the test with transketolase (TK) (setting [10]) was “+/−”.

In the case of “12-o-tetradecanoylphorbol 13-acetate [TPA, reference compound]”, the “expression level of IL-1β gene” value in the test with interleukin-1β (IL-1β) (setting [9]) is listed as “++”. Besides, the “expression level of SCO2 gene” value in test [1] (setting [9]) was “+”. The “expression level of MIP1β gene” value in test [2] (setting [9]) was “++”. Besides, the “expression level of MIP2α gene” value in test [3] (setting [10]) is listed as “+”. The “expression level of MRP8 gene” value in [4] (setting [9]) is “+/−”. For the same compound, the “expression level of NAF1 gene” value in test [5] (setting [9]) was “+/−”. For the same compound, in test [6] (setting [10]), the “expression level of RGS2 gene” value is “+/−”. Moreover, in [7] (setting [9]), the “expression level of ADORA2A gene” value was “+”. Moreover, the “expression level of IFNp15/p17 gene” value in test [8] (setting [9]) is “+”. In addition, the “expression level of TK gene” value in the test on transketolase (TK) (setting [10]) was “−”.

As to `O=C1C=CC(CO)OC1O` [DGE, L-glycero-1,5-epoxy-1αβ,6-dihydroxy-cis-hex-3-en-2-one], the “expression level of IL-1β gene” value in the test on interleukin-1β (IL-1β) (setting [11]), with interleukin-1β (IL-1β) (setting [12]) and in the test with interleukin-1β (IL-1β) (setting [9]) was “+” throughout. The “expression level of SCO2 gene” value in test [1] (setting [13]), in [1] (setting [14]) and in test [1] (setting [9]) was “+” each time. Moreover, the “expression level of MIP1β gene” value in test [2] (setting [11]), in test [2] (setting [12]) and in test [2] (setting [9]) was “+/−” in each case. The “expression level of MIP2α gene” value was “+/−” in [3] (L + D: DGE and LPS, LPS alone +); “+/−” in [3] (setting [14]); “+/−” in test [3] (setting [10]). Besides, the “expression level of MRP8 gene” value in test [4] (setting [15]), in [4] (setting [16]) and in [4] (setting [9]) was “+” throughout. Moreover, the “expression level of NAF1 gene” value in test [5] (L + D: DGE and LPS, LPS alone ++) was “+/−”; in test [5] (setting [16]) it was “−”; in test [5] (setting [9]) it was “−”. In addition, the “expression level of RGS2 gene” value in test [6] (setting [13]), in [6] (setting [16]) and in [6] (setting [10]) was “+/−” each time. Also, the entries for the “expression level of ADORA2A gene” value in test [7] (setting [11]), in test [7] (setting [14]) and in test [7] (setting [9]) were “−”, “−” and “+/−”, respectively. The “expression level of IFNp15/p17 gene” value was “+/−” in test [8] (setting [11]), “+/−” in [8] (setting [14]) and “+” in test [8] (setting [9]). In addition, the “expression level of TK gene” value in the test with transketolase (TK) (setting [15]) was “+”; with transketolase (TK) (T + D: DGE and TPA, TPA alone −), “+”; with transketolase (TK) (setting [10]), “+/−”.
